Test results from patent US20260373119A1, “NOVEL COMPOUND, AND COMPOSITION FOR PREVENTING OR TREATING HER2-POSITIVE CANCER, COMPRISING SAME” (EWHA UNIVERSITY - INDUSTRY COLLABORATION FOUNDATION, priority 2022, published 2026).
Converted amounts (≈) assume the structure as drawn.

Legend:
solubility = type: physicochemical; conditions: pH 7
[1] = target: T1, ELF3-MED23 protein-protein interaction (Homo sapiens, UniProt Q9ULK4); assay: SEAP reporter assay, ELF3-MED23 PPI inhibition (293T kidney cells); type: cell-based
T1 construct: followed by the addition of either the candidate compound or MED23 protein constructs; endogenous in cells; host or cells: 293T kidney cells (MED23 endogenous; GAL4-ELF3 transfected)
T1 sequence (Q9ULK4 1-1368): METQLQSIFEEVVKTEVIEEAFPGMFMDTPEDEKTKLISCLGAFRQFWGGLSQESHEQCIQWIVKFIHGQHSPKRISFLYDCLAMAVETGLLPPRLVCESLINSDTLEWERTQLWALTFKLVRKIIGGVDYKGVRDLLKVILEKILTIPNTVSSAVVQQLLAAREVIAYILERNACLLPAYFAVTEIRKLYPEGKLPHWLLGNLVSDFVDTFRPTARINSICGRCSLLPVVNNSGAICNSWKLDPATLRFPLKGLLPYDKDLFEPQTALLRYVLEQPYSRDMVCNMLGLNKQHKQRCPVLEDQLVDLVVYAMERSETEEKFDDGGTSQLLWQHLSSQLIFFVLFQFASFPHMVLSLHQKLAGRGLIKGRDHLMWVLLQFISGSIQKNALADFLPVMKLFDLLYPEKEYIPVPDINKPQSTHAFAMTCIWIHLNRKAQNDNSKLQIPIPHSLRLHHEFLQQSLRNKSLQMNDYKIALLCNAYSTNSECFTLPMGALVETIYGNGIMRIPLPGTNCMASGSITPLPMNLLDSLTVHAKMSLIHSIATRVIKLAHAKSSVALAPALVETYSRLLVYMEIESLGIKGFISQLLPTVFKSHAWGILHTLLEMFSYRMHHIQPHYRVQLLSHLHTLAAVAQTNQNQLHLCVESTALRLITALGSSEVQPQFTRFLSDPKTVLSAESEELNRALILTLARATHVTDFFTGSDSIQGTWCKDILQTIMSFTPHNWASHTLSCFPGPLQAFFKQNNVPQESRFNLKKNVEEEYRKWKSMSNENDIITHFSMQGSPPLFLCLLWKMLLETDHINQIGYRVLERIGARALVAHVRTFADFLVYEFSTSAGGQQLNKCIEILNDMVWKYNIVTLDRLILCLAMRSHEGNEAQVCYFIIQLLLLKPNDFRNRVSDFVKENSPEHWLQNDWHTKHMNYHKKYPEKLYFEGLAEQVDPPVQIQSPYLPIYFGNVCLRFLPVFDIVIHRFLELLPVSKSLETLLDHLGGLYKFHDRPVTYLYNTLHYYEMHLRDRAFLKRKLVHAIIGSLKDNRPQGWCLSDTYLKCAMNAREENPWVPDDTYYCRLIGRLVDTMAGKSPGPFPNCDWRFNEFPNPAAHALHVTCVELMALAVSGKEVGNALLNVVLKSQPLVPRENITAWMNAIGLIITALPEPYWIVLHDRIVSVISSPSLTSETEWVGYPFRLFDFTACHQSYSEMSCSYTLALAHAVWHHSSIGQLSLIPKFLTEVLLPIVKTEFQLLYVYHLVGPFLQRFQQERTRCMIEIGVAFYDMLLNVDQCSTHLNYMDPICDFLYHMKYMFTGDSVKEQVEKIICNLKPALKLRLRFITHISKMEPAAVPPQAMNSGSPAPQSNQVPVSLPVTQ
Description: To verify whether the D400 and H449 residues play a critical role in the ELF3-MED23 protein-protein interaction, a SEAP assay was performed. Specifically, 293T kidney cells were seeded at a density of 5×10^3 cells/well in a 96-well microplate (SPL, Korea) and cultured overnight. Subsequently, the cells were co-transfected with 100 ng of each plasmid using transfection-optimized medium (Welgene, Korea). The plasmids used included the SEAP reporter gene (pG5IL2SX) and GAL4-ELF3 expression vector (pBJ GAL4-ELF3). For transfection, the cells were incubated with WelFectQ (Welgene, Korea) for 3 hours, followed by the addition of either the candidate compound or MED23 protein constructs (pcDNA MED23^WT, K397A, D400A, H449G, and D400A/H449G). The treated cells were incubated for 12 hours. The candidate compound was added in an incubator at 5% CO2 and 37 °C, and the plate was incubated at 65 °C for 3 hours to inactivate all enzymes except SEAP (Secreted Alkaline Phosphatase). A mixture comprising 100 μL of substrate solution prepared with 1.19 μL of 0.1 M 4-methylumbelliferyl phosphate (Sigma, USA), 25 μL of inactivated medium, and 75 μL of double-distilled water was added, followed by the addition of 98.81 μL of 2 M diethanolamine (pH 10, Sigma, USA). The plate was incubated overnight at 37 °C. Subsequently, the fluorescence intensity was measured using a fluorometer (SPECTRAmax […], Molecular Devices, USA) at an excitation wavelength of 360 nm and an emission wavelength of 440 nm.
To further elaborate on the above findings, small molecule compounds that could affect the ELF3-MED23 PPI were designed and synthesized. Specifically, non-essential side chains were removed from gefitnib, and compounds were designed to include both hydrogen bond donors and acceptors for the D400 and H449 residues of MED23, respectively (FIG. 4A). Specifically, chalcones and pyrazolines were selected as core scaffolds, and 25 compounds (11 chalcones and 14 pyrazoline-based compounds) were prepared. The ELF3-MED23 PPI inhibitory activity of all prepared compounds was measured using a SEAP assay.

MED23-ELK1 PPI = target: T2, MED23-ELK1 PPI (Homo sapiens, UniProt Q9ULK4); assay: immunoprecipitation, MED23-ELK1 PPI; type: cell-based
T2 construct: co-immunoprecipitation of ELK1, probably endogenous
Description: NCI-N87 cells from a gastric cancer cell line were seeded in a 100 mm cell culture dish and cultured until they reached 60-70% confluence. The cultured cells were transfected with p3Xflag-myc-CMV26-empty or p3Xflag-myc-CMV26-MED23^WT plasmids using Lipofectamine® 2000 (Invitrogen, USA). After transfection, YK1 (5 μM) was added 12 hours post-transfection, and the cells were cultured for 12 hours. A total of 750 μg of cell lysate was incubated with 20 μL of FLAG-agarose bead slurry (Sigma Aldrich, USA) on a rotator at 4 °C for 4 hours. The sample was centrifuged at 12,000 rpm for 1 minute to precipitate the beads. After removing the supernatant, the remaining beads were washed three times with 200 μL of lysis buffer (RIPA).
After removing the final supernatant, the beads were eluted by boiling with 2× sample buffer at 98 °C for 5 minutes. The immunoprecipitated proteins were loaded, separated by SDS-PAGE, and analyzed by Western blotting.

solubility (solubility): 103.2 ± 0.6 µg/mL (≈ 328 µM)
IC50 ([1]; ELF3-MED23 PPI): 1.18 ± 0.34 µM
inhibition at 10 µM ([1]; HEK-293T, 10 μM): 95%
PPI inhibitory effect on MED23-ELK1 (MED23-ELK1 PPI): did not inhibit these PPIs
SMILES: CC(=O)N1N=C(c2cccc(O)c2)CC1c1ccc(Cl)cc1 (stereo not shown) [Compound 15, 1-[5-(4-Chlorophenyl)-3-(3-hydroxyphenyl)-4,5-dihydropyrazol-1-yl]-ethanone]
